Assay results as given in patent publication US9526802B2, “Nucleic acid complexes” (Purdue Research Foundation, priority 2012, dated 2016).

Legend:
CHO-GFP cells = test: Cell viability assay (1), MTS; type: cell-based
Method: FIG. 3 depicts cell viabilities of 1, 2, 3, Chol-PVA-PEG and Chol-PVA-PEG+1 host:guest pendant polymer complexes in CHO-GFP cells using 25 kD bPEI as control.
The cytotoxicity of the amino-CD derivatives in comparison with bPEI (25 kDa) was evaluated using the MTS assay in CHO-GFP cell lines. The relative cell viabilities were measured as a function of amine densities of the polymers. […] After 24 h, culture media were replaced with serum-free culture media containing increasing amine concentrations of amino-CD, polymer and the polymer:CD complexes and the cells were incubated for 24 h. After 24 h, 15 μl of MTS reagent was added to each well and incubated for 2 h. […] All experiments were conducted for three samples and averaged. […] In this study, LD50 was the concentration of a gene carrier at which the relative cell viability decreased to 50%.

pDNA = test: Gel shift assay; type: binding; details: various N:P ratios, compared among 4, 5, 6
Method: The complexation ability of the systems was studied by gel shift assay. Agarose gels (1% w/v) containing ethidium bromide were made in 1× TE buffer. Transfection complexes were loaded onto the gel at various N:P ratios and 200 ng of DNA added to the wells. The gels were run at 50 V for about 1 h and visualized.
Also, in the absence of polymer, higher N:P ratios were used to condense pDNA effectively. […] This improved condensation capability of 6 relative to 4 and 5 can be attributed to the availability of both the nitrogens on the hydrazine moiety for interaction with pDNA.

Compound | LD50 (CHO-GFP cells) [mM] | capacity for condensing pDNA (pDNA)
CNCCN(C)C[C@H]1O[C@@H]2O[C@H]3[C@H](O)[C@@H](O)[C@@H](O[C@H]4[C@H](O)[C@@H](O)[C@@H](O[C@H]5[C@H](O)[C@@H](O)[C@@H](O[C@H]6[C@H](O)[C@@H](O)[C@@H](O[C@H]7[C@H](O)[C@@H](O)[C@@H](O[C@H]8[C@H](O)[C@@H](O)[C@@H](O[C@H]1[C@H](O)[C@H]2O)O[C@@H]8CO)O[C@@H]7CO)O[C@@H]6CO)O[C@@H]5CO)O[C@@H]4CO)O[C@@H]3CO [Compound 2, Mono-6-(N,N′-dimethylethane-1,2-diamine)-6-deoxy-β-cyclodextrin] | > 10 | 
NNC[C@H]1O[C@@H]2O[C@H]3[C@H](O)[C@@H](O)[C@@H](O[C@H]4[C@H](O)[C@@H](O)[C@@H](O[C@H]5[C@H](O)[C@@H](O)[C@@H](O[C@H]6[C@H](O)[C@@H](O)[C@@H](O[C@H]7[C@H](O)[C@@H](O)[C@@H](O[C@H]8[C@H](O)[C@@H](O)[C@@H](O[C@H]1[C@H](O)[C@H]2O)O[C@@H]8CNN)O[C@@H]7CNN)O[C@@H]6CNN)O[C@@H]5CNN)O[C@@H]4CNN)O[C@@H]3CNN [Compound 6, hepta-6-hydrazyl-β-CD] |  | greatest capacity for condensing pDNA
